Measurements taken from DBAASP.
Converted amounts (≈) assume the structure as drawn.

Experiments:
Assay in all cases: ≥ marks a high value that may be exact or a test limit, other limits are often not marked, values filed in µg/mL are converted to µM
[1] = tested on: Staphylococcus epidermidis ATCC 12228
[2] = tested on: Escherichia coli ATCC 25922
[3] = tested on: Candida albicans ATCC 90028
[4] = tested on: Staphylococcus aureus ATCC 25923
[5] = tested on: Pseudomonas aeruginosa ATCC 27853
[6] = tested on: Acinetobacter baumannii ATCC 19606
[7] = tested on: Staphylococcus aureus ATCC 29213

| SMILES | MIC [1] [µM] | MIC [2] [µM] | MIC [3] [µM] | MIC [4] [µM] | MIC [5] [µM] | MIC [6] [µM] | MIC [7] [µM] |
| --- | --- | --- | --- | --- | --- | --- | --- |
| CC[C@H](C)[C@H](NC(=O)CN)C(=O)NCC(=O)N[C@@H](CO)C(=O)N[C@H](C(=O)N[C@@H](CC(C)C)C(=O)NCC(=O)N[C@H](C(=O)N[C@H](C(=O)N[C@@H](C)C(=O)N[C@@H](CCCCN)C(=O)NCC(=O)N[C@@H](CC(C)C)C(=O)N1CCC[C@H]1C(=O)N[C@H](C(=O)N[C@@H](CC(C)C)C(=O)N[C@H](C(=O)N[C@@H](CO)C(=O)N[C@@H](Cc1c[nH]c2ccccc12)C(=O)N[C@H](C(=O)N[C@@H](CCCCN)C(=O)N[C@@H](CC(N)=O)C(=O)N[C@@H](CCCN=C(N)N)C(N)=O)[C@@H](C)CC)[C@@H](C)CC)[C@@H](C)O)[C@@H](C)CC)C(C)C)[C@@H](C)CC [GIGSILGVIAKGLPTLISWIKNR] | – | 20 (≈ 48.1 µg/mL) | 20 (≈ 48.1 µg/mL) | 5 (≈ 12 µg/mL) | – | – | – |
| CC[C@H](C)[C@H](NC(=O)[C@H](CC(N)=O)NC(=O)[C@H](Cc1cnc[nH]1)NC(=O)[C@H](Cc1ccccc1)NC(=O)[C@H](CC(C)C)NC(=O)[C@H](CCSC)NC(=O)CNC(=O)[C@H](CC(C)C)NC(=O)[C@H](CCSC)NC(=O)[C@H](CCCCN)NC(=O)[C@@H](N)CC(C)C)C(=O)N[C@@H](CCCN=C(N)N)C(=O)N[C@@H](CC(N)=O)C(=O)N[C@H](C(=O)N[C@@H](CC(C)C)C(=O)N[C@@H](CCCCN)C(=O)N[C@H](C(=O)N[C@H](C(N)=O)C(C)C)[C@@H](C)O)[C@@H](C)CC [LKMLGMLFHNIRNILKTV] | 64 (≈ 137 µg/mL) | – | ≥ 64 | 128 (≈ 274 µg/mL) | – | – | – |
| CC(C)C[C@H](NC(=O)[C@H](CC(C)C)NC(=O)[C@H](CCCCN)NC(=O)[C@H](CCCCN)NC(=O)[C@H](CC(C)C)NC(=O)[C@H](CCC(=O)O)NC(=O)[C@H](CCCCN)NC(=O)[C@H](CC(C)C)NC(=O)[C@@H](N)Cc1ccccc1)C(N)=O [FLKELKKLL] | – | 113 (≈ 128 µg/mL) | – | > 113 | 14.1 (≈ 16 µg/mL) | 113 (≈ 128 µg/mL) | – |
| CC(C)C[C@H](NC(=O)[C@H](CC(C)C)NC(=O)[C@H](CCCCN)NC(=O)[C@H](CCCCN)NC(=O)[C@H](CC(C)C)NC(=O)[C@@H]1CCCN1C(=O)[C@H](CCCCN)NC(=O)[C@H](CC(C)C)NC(=O)[C@@H](N)Cc1ccccc1)C(N)=O [FLKPLKKLL] | – | > 116 | – | > 116 | 7.28 (≈ 7.99 µg/mL) | > 116 | – |
| CC(C)C[C@H](NC(=O)[C@H](CC(C)C)NC(=O)[C@H](CCCCN)NC(=O)[C@H](CCCCN)NC(=O)[C@H](CC(C)C)NC(=O)[C@H](CC(N)=O)NC(=O)[C@H](CCCCN)NC(=O)[C@H](CC(C)C)NC(=O)[C@@H](N)Cc1ccccc1)C(N)=O [FLKNLKKLL] | – | 115 (≈ 128 µg/mL) | – | > 115 | 7.17 (≈ 7.99 µg/mL) | > 115 | – |
| CC(C)C[C@H](NC(=O)[C@H](CC(C)C)NC(=O)[C@H](CCCCN)NC(=O)[C@H](CCCCN)NC(=O)[C@H](CC(C)C)NC(=O)[C@@H](NC(=O)[C@H](CCCCN)NC(=O)[C@H](CC(C)C)NC(=O)[C@@H](N)Cc1ccccc1)C(C)C)C(N)=O [FLKVLKKLL] | – | 29.1 (≈ 32 µg/mL) | – | 29.1 (≈ 32 µg/mL) | 7.26 (≈ 7.99 µg/mL) | 29.1 (≈ 32 µg/mL) | – |

Now from value to molecule:

| MIC [1] [µM] | MIC [2] [µM] | MIC [3] [µM] | MIC [4] [µM] | MIC [5] [µM] | MIC [6] [µM] | MIC [7] [µM] | SMILES |
| --- | --- | --- | --- | --- | --- | --- | --- |
| 5 (≈ 13.8 µg/mL) | 10 (≈ 27.5 µg/mL) | – | – | – | – | – | CC[C@H](C)[C@H](NC(=O)CN)C(=O)N[C@@H](CCCCN)C(=O)N[C@@H](CCCCN)C(=O)N[C@@H](Cc1c[nH]c2ccccc12)C(=O)N1CCC[C@H]1C(=O)N[C@@H](Cc1cnc[nH]1)C(=O)N[C@@H](CCCCN)C(=O)N1CCC[C@H]1C(=O)N[C@@H](CCCCN)C(=O)N[C@@H](CCCCN)C(=O)N[C@@H](Cc1ccccc1)C(=O)NCC(=O)N[C@@H](CCCCN)C(=O)N[C@@H](CCCCN)C(=O)N[C@@H](Cc1ccccc1)C(=O)N[C@H](C(=O)N[C@@H](CCCCN)C(=O)N[C@@H](CCCCN)C(=O)N[C@H](C(=O)N[C@@H](CCSC)C(=O)N[C@@H](CC(N)=O)C(=O)N[C@@H](CO)C(N)=O)[C@@H](C)CC)C(C)C [GIKKWPHKPKKFGKKFVKKIMNS] |
| 1.25 (≈ 3.41 µg/mL) | 2.5 (≈ 6.82 µg/mL) | – | – | – | – | – | CC[C@H](C)[C@H](NC(=O)CN)C(=O)N[C@@H](CCCCN)C(=O)N[C@@H](CCCCN)C(=O)N[C@@H](Cc1c[nH]c2ccccc12)C(=O)N[C@@H](CC(C)C)C(=O)N[C@@H](Cc1cnc[nH]1)C(=O)N[C@@H](CO)C(=O)N1CCC[C@H]1C(=O)N[C@@H](CCCCN)C(=O)N[C@@H](CCCCN)C(=O)N[C@@H](Cc1ccccc1)C(=O)NCC(=O)N[C@@H](CCCCN)C(=O)N[C@@H](CCCCN)C(=O)N[C@@H](Cc1ccccc1)C(=O)N[C@H](C(=O)N[C@@H](CCCCN)C(=O)N[C@@H](CCCCN)C(=O)N[C@H](C(=O)N[C@@H](CCSC)C(=O)N[C@@H](CC(N)=O)C(=O)N[C@@H](CO)C(N)=O)[C@@H](C)CC)C(C)C [GIKKWLHSPKKFGKKFVKKIMNS] |
| 0.31 (≈ 0.85 µg/mL) | 1.25 (≈ 3.43 µg/mL) | – | – | – | – | – | CC[C@H](C)[C@H](NC(=O)CN)C(=O)N[C@@H](CCCCN)C(=O)N[C@@H](CCCCN)C(=O)N[C@@H](Cc1c[nH]c2ccccc12)C(=O)N[C@@H](CC(C)C)C(=O)N[C@@H](Cc1cnc[nH]1)C(=O)N[C@@H](CO)C(=O)N[C@@H](C)C(=O)N[C@@H](CCCCN)C(=O)N[C@@H](CCCCN)C(=O)N[C@@H](Cc1ccccc1)C(=O)N1CCC[C@H]1C(=O)N[C@@H](CCCCN)C(=O)N[C@@H](CCCCN)C(=O)N[C@@H](Cc1ccccc1)C(=O)N[C@H](C(=O)N[C@@H](CCCCN)C(=O)N[C@@H](CCCCN)C(=O)N[C@H](C(=O)N[C@@H](CCSC)C(=O)N[C@@H](CC(N)=O)C(=O)N[C@@H](CO)C(N)=O)[C@@H](C)CC)C(C)C [GIKKWLHSAKKFPKKFVKKIMNS] |
| 0.16 (≈ 0.433 µg/mL) | 0.63 (≈ 1.7 µg/mL) | – | – | – | – | – | CC[C@H](C)[C@H](NC(=O)CN)C(=O)N[C@@H](CCCCN)C(=O)N[C@@H](CCCCN)C(=O)N[C@@H](Cc1c[nH]c2ccccc12)C(=O)N[C@@H](CC(C)C)C(=O)N[C@@H](Cc1cnc[nH]1)C(=O)N[C@@H](CO)C(=O)N[C@@H](C)C(=O)N[C@@H](CCCCN)C(=O)N[C@@H](CCCCN)C(=O)N[C@@H](Cc1ccccc1)C(=O)NCC(=O)N[C@@H](CCCCN)C(=O)N[C@@H](CCCCN)C(=O)N[C@@H](Cc1ccccc1)C(=O)N[C@H](C(=O)N[C@@H](CCCCN)C(=O)N[C@@H](CCCCN)C(=O)N[C@H](C(=O)N[C@@H](CCSC)C(=O)N[C@@H](CC(N)=O)C(=O)N[C@@H](CO)C(N)=O)[C@@H](C)CC)C(C)C [GIKKWLHSAKKFGKKFVKKIMNS] |
| 0.08 (≈ 0.218 µg/mL) | 0.63 (≈ 1.72 µg/mL) | – | – | – | – | – | CC[C@H](C)[C@H](NC(=O)CN)C(=O)N[C@@H](CCCCN)C(=O)N[C@@H](CCCCN)C(=O)N[C@@H](Cc1c[nH]c2ccccc12)C(=O)N[C@@H](CC(C)C)C(=O)N[C@@H](Cc1cnc[nH]1)C(=O)N[C@@H](CCCCN)C(=O)NCC(=O)N[C@@H](CCCCN)C(=O)N[C@@H](CCCCN)C(=O)N[C@@H](Cc1ccccc1)C(=O)NCC(=O)N[C@@H](CCCCN)C(=O)N[C@@H](CCCCN)C(=O)N[C@@H](Cc1ccccc1)C(=O)N[C@H](C(=O)N[C@@H](CCCCN)C(=O)N[C@@H](CCCCN)C(=O)N[C@H](C(=O)N[C@@H](CCSC)C(=O)N[C@@H](CC(N)=O)C(=O)N[C@@H](CO)C(N)=O)[C@@H](C)CC)C(C)C [GIKKWLHKGKKFGKKFVKKIMNS] |
| – | 5 (≈ 7.65 µg/mL) | ≥ 40 | – | 10 (≈ 15.3 µg/mL) | – | 20 (≈ 30.6 µg/mL) | CC[C@H](C)[C@H](NC(=O)[C@H](CCCN=C(N)N)NC(=O)[C@H](CCC(N)=O)NC(=O)[C@@H](NC(=O)[C@H](C)NC(=O)[C@H](CCCN=C(N)N)NC(=O)[C@@H](N)CCCCN)C(C)C)C(=O)N[C@@H](CCCCN)C(=O)N[C@@H](CC(=O)O)C(=O)N[C@@H](Cc1ccccc1)C(=O)N[C@@H](CC(C)C)C(=O)N[C@@H](CCCN=C(N)N)C(=O)O [KRAVQRIKDFLR] |
